Measured values: the supplement of paper PMC10307832

Assays:
Assay in all cases: relative viability (nuclei count vs DMSO), 5 days (fraction); higher = more cells survive
17-AAG + Luminespib = compound: C=CCNC1=C2C[C@@H](C)C[C@H](OC)[C@H](O)[C@@H](C)/C=C(\C)[C@H](OC(N)=O)[C@@H](OC)/C=C\C=C(/C)C(=O)NC(=CC1=O)C2=O [17-AAG] + CCNC(=O)c1noc(-c2cc(C(C)C)c(O)cc2O)c1-c1ccc(CN2CCOCC2)cc1 [Luminespib] (partner 0.01 µM)
How it was run: (§1)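 The day after seeding in 1536-well plates, lung cancer cell lines were treated by pin tool with a single drug, or with a fixed anchor-drug dose together with five library-drug doses (not always all listed) in √10 steps. After 5 days, a combined fix-and-stain solution (final 0.05% Triton X-100, 1% formaldehyde, 1 ug/ml Hoechst) was added. Nuclei counted on 4× images gave relative viability as treated counts over vehicle counts, reported as the median of duplicate plates.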

17-AAG + Tozasertib = compound: C=CCNC1=C2C[C@@H](C)C[C@H](OC)[C@H](O)[C@@H](C)/C=C(\C)[C@H](OC(N)=O)[C@@H](OC)/C=C\C=C(/C)C(=O)NC(=CC1=O)C2=O [17-AAG] + Cc1cc(Nc2cc(N3CCN(C)CC3)nc(Sc3ccc(NC(=O)C4CC4)cc3)n2)n[nH]1 [Tozasertib] (partner 0.1 µM)
How it was run: as §1

17-AAG + Alpelisib = compound: C=CCNC1=C2C[C@@H](C)C[C@H](OC)[C@H](O)[C@@H](C)/C=C(\C)[C@H](OC(N)=O)[C@@H](OC)/C=C\C=C(/C)C(=O)NC(=CC1=O)C2=O [17-AAG] + Cc1nc(NC(=O)N2CCC[C@H]2C(N)=O)sc1-c1ccnc(C(C)(C)C(F)(F)F)c1 [Alpelisib] (partner 2 µM)
How it was run: as §1

17-AAG + Dasatinib = compound: C=CCNC1=C2C[C@@H](C)C[C@H](OC)[C@H](O)[C@@H](C)/C=C(\C)[C@H](OC(N)=O)[C@@H](OC)/C=C\C=C(/C)C(=O)NC(=CC1=O)C2=O [17-AAG] + Cc1nc(Nc2ncc(C(=O)Nc3c(C)cccc3Cl)s2)cc(N2CCN(CCO)CC2)n1 [Dasatinib] (partner 0.075 µM)
How it was run: as §1

| Cell Line | relative viability (17-AAG + Luminespib; first compound 0.00128 µM) | relative viability (17-AAG + Luminespib; first compound 0.004048 µM) | relative viability (17-AAG + Luminespib; first compound 0.0128 µM) | relative viability (17-AAG + Luminespib; first compound 0.04048 µM) | relative viability (17-AAG + Luminespib; first compound 0.128 µM) | relative viability (17-AAG + Tozasertib; first compound 0.00128 µM) | relative viability (17-AAG + Tozasertib; first compound 0.004048 µM) | relative viability (17-AAG + Tozasertib; first compound 0.0128 µM) | relative viability (17-AAG + Tozasertib; first compound 0.04048 µM) | relative viability (17-AAG + Tozasertib; first compound 0.128 µM) | relative viability (17-AAG + Alpelisib; first compound 0.00128 µM) | relative viability (17-AAG + Alpelisib; first compound 0.004048 µM) | relative viability (17-AAG + Alpelisib; first compound 0.0128 µM) | relative viability (17-AAG + Alpelisib; first compound 0.04048 µM) | relative viability (17-AAG + Alpelisib; first compound 0.128 µM) | relative viability (17-AAG + Dasatinib; first compound 0.00128 µM) | relative viability (17-AAG + Dasatinib; first compound 0.004048 µM) | relative viability (17-AAG + Dasatinib; first compound 0.0128 µM) | relative viability (17-AAG + Dasatinib; first compound 0.04048 µM) | relative viability (17-AAG + Dasatinib; first compound 0.128 µM) |
| --- | --- | --- | --- | --- | --- | --- | --- | --- | --- | --- | --- | --- | --- | --- | --- | --- | --- | --- | --- | --- |
| NCI-H23 | 0.242 | 0.208 | 0.19 | 0.206 | 0.202 | 0.425 | 0.563 | 0.365 | 0.213 | 0.187 | 0.717 | 0.472 | 0.434 | 0.2 | 0.148 | 0.697 | 0.746 | 0.389 | 0.165 | 0.119 |
| NCI-H322M | 0.663 | 0.274 | 0.285 | 0.274 | 0.289 | 0.478 | 0.443 | 0.337 | 0.316 | 0.325 | 0.826 | 0.865 | 0.796 | 0.548 | 0.382 | 0.284 | 0.302 | 0.256 | 0.257 | 0.268 |
| NCI-H358 | 0.273 | 0.235 | 0.121 | 0.0893 | 0.0737 | 0.115 | 0.0905 | 0.0894 | 0.0684 | 0.0644 | 0.838 | 0.556 | 0.126 | 0.134 | 0.126 | 0.216 | 0.117 | 0.0644 | 0.0712 | 0.0579 |
| NCI-H441 | 0.278 | 0.197 | 0.196 | 0.181 | 0.17 | 0.723 | 0.609 | 0.321 | 0.235 | 0.15 | 0.625 | 0.61 | 0.236 | 0.172 | 0.145 | 0.587 | 0.45 | 0.129 | 0.122 | 0.127 |
| NCI-H460 | 0.0254 | 0.0275 | 0.0254 | 0.0299 | 0.023 | 0.478 | 0.521 | 0.0911 | 0.0297 | 0.0214 | 0.544 | 0.214 | 0.0127 | 0.0124 | 0.0122 | 0.518 | 0.462 | 0.0434 | 0.0267 | 0.019 |
| NCI-H520 | 0.236 | 0.22 | 0.227 | 0.202 | 0.188 | 0.453 | 0.47 | 0.457 | 0.253 | 0.24 | 0.993 | 0.838 | 0.839 | 0.155 | 0.132 | 0.241 | 0.236 | 0.21 | 0.169 | 0.121 |
| NCI-H596 | 1.08 | 0.865 | 0.996 | 0.548 | 0.414 | 0.959 | 0.832 | 1.01 | 0.443 | 0.258 | 0.479 | 0.648 | 0.564 | 0.454 | 0.358 | 0.587 | 0.524 | 0.579 | 0.587 | 0.238 |
